Data set [1] concerns P. falciparum 3D7 parasites. Put plainly: P. falciparum 3D7 asexual stage parasite LDH assay, 72 h. Format: cell-based, Plasmodium falciparum. The following applies: for EC50: Plasmodium falciparum, 3D7, 72 h, P. falciparum 3D7, LDH activity, 72 h exposure, means and SDs, 3 or more experiments, read-out: Pf parasite EC50 (SD); for fold reduction in antiplasmodial activity compared to W482 (1): ratio of 3D7 EC50 values. As for the experimental part:
To establish the SAR, the antiparasitic activity of the analogs was determined using an assay that measures the lactate dehydrogenase (LDH) activity of asexual P. falciparum 3D7 parasites after 72 h of compound treatment. Mammalian cytotoxicity was monitored using an assay that measures the growth of HepG2 cells using Cell Titer‐Glo after 48 h of compound treatment.
This was performed as previously described, whereby lactate dehydrogenase (LDH) was used as a metabolic marker for parasite growth after a 72‐h incubation period.^[ [14] ^, [30] ^]

For data set [2], the system named is PfABCI3-HAreg parasites. Put plainly: Parasite proliferation assay with PfABCI3-HAreg parasites (SYBR Safe, 72 h). Format: cell-based, Plasmodium falciparum. The following applies: mean ± SEM, n = 4; for IC50: Plasmodium falciparum, 72 h. As for the experimental part: Glucosamine (GlcN) (5 mM) was used to reduce the level of pfabci3‐ha. Chloroquine and MMV020746 were used as negative and positive controls, respectively.
Figure 4 Sensitivity of PfABCI3‐HAreg parasites to growth inhibition by chloroquine (a), MMV020746 (b), and W482 (1) (c). Data for parasites in which pfabci3‐ha mRNA was reduced (+ GlcN) are shown in red. GlcN (5 mM) was added to the parasites 48 h prior to the assay and maintained throughout the 72 h assay. The data for parasites expressing a normal level of PfABCI3‐HA (‐GlcN) are shown in black. The data in all panels are from four independent experiments performed on different days. […] Parasites that were treated with or without GlcN (5 mM) were tested concurrently in each assay. TEXT PRINTED IN THE PICTURE: chloroquine: IC50 ± SEM (nM) - GlcN: 12.6 ± 1.1; IC50 ± SEM (nM) + GlcN: 11.9 ± 1.5 | MMV020746: IC50 ± SEM (nM) - GlcN: 104 ± 13; IC50 ± SEM (nM) + GlcN: 32.9 ± 3.9 | W482 (1): IC50 ± SEM (nM) - GlcN: 312 ± 28; IC50 ± SEM (nM) + GlcN: 153 ± 12
Parasite proliferation assays were performed with PfABCI3‐HAreg parasites^[ [19] ^] according to a previously described method, with the fluorescent nucleic acid intercalating dye SYBR Safe used to measure parasite viability.^[ [32] ^, [33] ^] The assays were commenced with cultures consisting of predominantly ring‐stage parasites with a starting hematocrit of 1% and parasitemia of 1%. […] It was shown previously that there is a reduction in pfabci3‐ha mRNA in PfABCI3‐HAreg exposed to 5 mM GlcN and a decrease in parasite viability over time.^[ [19] ^] The level of knockdown of the protein is not known.

The target of data set [3] is Albumax (Bos taurus, UniProt P02769). The data set can be described thus: in vitro. The data set is classed as in vitro ADME. The following applies: for fraction unbound: bovine, isolated protein, read-out: Albumax binding % bound (converted).
Sequence of Albumax (P02769 25-607): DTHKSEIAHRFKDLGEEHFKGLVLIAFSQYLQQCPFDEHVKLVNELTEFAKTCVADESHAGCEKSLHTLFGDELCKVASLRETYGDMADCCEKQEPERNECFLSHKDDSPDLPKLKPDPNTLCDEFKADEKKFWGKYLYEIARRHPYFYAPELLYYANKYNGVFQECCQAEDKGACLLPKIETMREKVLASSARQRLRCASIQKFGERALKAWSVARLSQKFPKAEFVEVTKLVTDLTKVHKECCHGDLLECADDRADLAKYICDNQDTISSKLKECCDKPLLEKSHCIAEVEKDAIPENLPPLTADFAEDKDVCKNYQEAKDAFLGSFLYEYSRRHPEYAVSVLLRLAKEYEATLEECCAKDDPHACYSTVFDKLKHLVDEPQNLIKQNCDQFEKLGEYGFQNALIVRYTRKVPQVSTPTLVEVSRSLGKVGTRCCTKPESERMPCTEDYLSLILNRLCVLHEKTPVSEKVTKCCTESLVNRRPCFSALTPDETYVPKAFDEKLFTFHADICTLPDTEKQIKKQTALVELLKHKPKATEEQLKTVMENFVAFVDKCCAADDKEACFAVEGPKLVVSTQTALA
Data set [4] in a line: in vitro. The data set is classed as in vitro ADME. The following applies: for hepatocyte CLint: rat hepatocytes; for microsomal CLint: human, microsomes, human liver microsomes. As to the method:
(§1) The aqueous solubility and in vitro metabolic stability of selected analogs were assessed to determine if they had favorable parameters (Table 9 ).These analogs were selected based on their potency and the modifications that were incorporated, which led to compounds 55 and 56. […] The high lipophilicity of analogs 1, 11, and 16 was not favorable for metabolic stability.
(§2) This was performed as previously described.^[ [14] ^, [16] ^]
A general note: Microsomes from liver hold many membrane-bound enzymes, among them those of drug oxidation.

The nature of data set [5]: physchem. The following applies: kinetic in PBS, pH 7.4. The data set is classed as physicochemical. As to the method:
as §1, §2

Data set [6] is described as follows: physchem. To be noted: shake-flask method; for logD: read-out: eLogD. Format: physicochemical. As for the experimental part:
as §2

Where [7] appears, read: aqueous buffer, kinetic from dmso stock.
[8] abbreviates: read-out: Aqueous solubility pH 7.4.

The record followed here is publication PMC12811996, “Exploration and Characterization of the Antimalarial Activity of Pyrimidine‐2,4‐Diamines for which Resistance is Mediated by the ABCI3 Transporter” (Chemmedchem, 2025).

≈ marks a conversion by molar mass, not a printed value. Like-named read-outs stand apart in the source and are kept apart here.

Regarding `Cc1cc(N(C)C)nc(Nc2ccc(NC(=O)c3ccco3)cc2)n1` [Compound 28], the EC50 in data set [1] was found to be 3900 nM. The same measure, in the same setting: to `Cc1cc(N(C)C)nc(Nc2ccc(NC(=O)C(C)(C)C)cc2)n1` [Compound 31] belongs 3360 nM. Take `Cc1cc(N(C)C)nc(Nc2ccc(NC(=O)c3cccc(F)c3)cc2)n1` [Compound 38]: in data set [1], the EC50 came to 780 nM and the “fold reduction in antiplasmodial activity compared to W482 (1)” value (“fold reduction” below) was found to be 2 fold. For the compound `Cc1cc(N(C)C)nc(Nc2ccc(NC(=O)Nc3ccccc3F)cc2)n1` [Compound 45], the concentration for a half-maximal effect (EC50) in data set [1] came to 3420 nM.

Consider `CCN(CC)CCCC(C)Nc1ccnc2cc(Cl)ccc12` (stereo not shown) [chloroquine, reference compound], for which the values for the IC50 in data set [2] (PfABCI3-HAreg parasites expressing normal level of PfABCI3-HA (-GlcN)) and in data set [2] (PfABCI3-HAreg parasites with reduced pfabci3-ha mRNA (+ 5 mM GlcN)) were 12.6 ± 1.1 nM and 11.9 ± 1.5 nM, respectively. Further, in data set [2], the “fold lower IC50 for +GlcN parasites than -GlcN parasites” value is “equally potent”. On to `Cc1cc(N(C)C)nc(Nc2ccc(NC(=O)c3cccc(Br)c3)cc2)n1` [Compound 39], for which the EC50 in data set [1] was determined as 450 nM.

With `Cc1cc(N(C)C)nc(Nc2ccc(NC(=O)c3ccc4ccccc4c3)cc2)n1` [Compound 29], the EC50 in data set [1] was 360 nM. Regarding `Cc1cc(N(C)C)nc(Nc2ccc(NC(=O)CC(C)C)cc2)n1` [Compound 32], the 50% effective concentration (EC50) in data set [1] stood at 1630 nM.

With `Cc1cccc(NC(=O)Nc2ccc(Nc3nc(C)cc(N(C)C)n3)cc2)c1` [Compound 50], the concentration giving a half-maximal response (EC50) in data set [1] came out at 240 nM.

In the case of `COc1cc(OC)cc(C(=O)Nc2ccc(Nc3nc(C)cc(N(C)C)n3)cc2)c1` [Compound 43], the EC50 in data set [1] is 640 nM.

On to `Cc1cc(N(C)C)nc(Nc2ccc(NC(=O)C(C)C)cc2)n1` [Compound 30], for which, in data set [1], the EC50 was 3760 nM. As for `Cc1cc(N(C)C)nc(Nc2ccc(NC(=O)CCC3CCCC3)cc2)n1` [Compound 34], in data set [1], the EC50 turned out to be 1000 nM and the “fold reduction” value was found to be 2 fold.

In the case of `Cc1cc(N(C)C)nc(Nc2ccc(NC(=O)c3ccccc3Cl)cc2)n1` [Compound 35], the EC50 in data set [1] is 2120 nM. Still for that read-out and setting: to `CN(C)c1nc(Nc2ccc(NC(=O)CCC3CCCCC3)cc2)cc2ccccc12` [Compound 21, 3‐Cyclohexyl‐N‐(4‐((1‐(dimethylamino)isoquinolin‐3‐yl)amino)phenyl)propanamide] belongs greater than 10000 nM. On the same count and under the same terms, to `Cc1cc(N(C)C)nc(Nc2ccc(NC(=O)Nc3ccccc3Cl)cc2)n1` [Compound 46] belongs greater than 10000 nM. For `O=C(Nc1ccc(F)cc1)Nc1ccc(Nc2nc(N3CCNCC3)c3ccccc3n2)cc1` [Compound 56, 1‐(4‐Fluorophenyl)‐3‐(4‐((4‐(piperazin‐1‐yl)quinazolin‐2‐yl)amino)phenyl)urea], the fraction unbound in data set [3] was 0.001. Further, the EC50 in data set [1] was 180 nM. Moreover, the hepatocyte CLint in data set [4] is 21 µL/min/1e6 cells. The solubility in data set [5] (setting [7]) was determined as 9.6 µM (≈ 4.39 µg/mL). In addition, the logD in data set [6] was found to be 2.2.

Consider `Cc1cc(N(C)C)nc(Nc2ccc(NC(=O)Nc3ccc(Cl)cc3)cc2)n1` [Compound 52], for which, in data set [1], the EC50 came out at 340 nM.

With `Cc1cc(N(C)Cc2ccccc2)nc(Nc2ccc(NC(=O)CCC3CCCCC3)cc2)n1` [Compound 6, N‐(4‐((4‐(Benzyl(methyl)amino)‐6‐methylpyrimidin‐2‐yl)amino)phenyl)‐3‐cyclohexylpropanamide], the EC50 in data set [1] amounted to 600 nM. Same read-out and setting: the value for `COc1ccc(Cl)cc1C(=O)Nc1ccc(Nc2nc(C)cc(N(C)C)n2)cc1` [Compound 44] was 490 nM. As to “3‐Cyclohexyl‐N‐(4‐((4‐methyl‐6‐(4‐methylpiperazin‐1‐yl)pyrimidin‐2‐yl)amino)phenyl)propenamide [Compound 11]”, in data set [3], the “Albumax binding % bound” value worked out at 99.9%. Besides, in data set [4], the “Rat hepatocytes CLint” value was greater than 92 µL/min/10^6 cells. In addition, the solubility in data set [5] (setting [8]) is recorded as 2.6 µM. The eLogD in data set [6] is on record as 4.6–5.0. Turning to `Cc1cc(N(C)C)nc(Nc2ccc(NC(=O)Nc3ccc(F)cc3)cc2)n1` [Compound 51], in data set [3], the fraction unbound is 0.016. Further, the EC50 in data set [1] was determined as 300 nM. In data set [4], this compound displayed a microsomal CLint of 26 µL/min/mg and a hepatocyte CLint of 32 µL/min/1e6 cells. The same compound yielded a solubility in data set [5] (setting [7]) of 3.7 µM (≈ 1.41 µg/mL). For the same compound, the logD in data set [6] worked out at 3. For the compound `Cc1cc(N(C)C)nc(Nc2ccc(NC(=O)c3ccc(C)c(C)c3)cc2)n1` [Compound 42], the EC50 in data set [1] is 660 nM. With `O=C(CCC1CCCCC1)Nc1ccc(Nc2nc(N3CCNCC3)c3ccccc3n2)cc1` [Compound 55, 3‐Cyclohexyl‐N‐(4‐((4‐(piperazin‐1‐yl)quinazolin‐2‐yl)amino)phenyl)propanamide], the fraction unbound in data set [3] was 0.002. Moreover, the EC50 in data set [1] is 230 nM. In addition, in data set [4], the “Human liver microsomes CLint” value is listed as 117 µL/min/mg, the intrinsic metabolic clearance (microsomal CLint) was greater than 117 µL/min/mg and the hepatocyte CLint turned out to be 27 µL/min/1e6 cells. Further, in data set [5] (setting [7]), the solubility worked out at 2.5 µM (≈ 1.15 µg/mL). Besides, in data set [6], the logD turned out to be 3.2.

Regarding `Cc1cc(N(C)C)nc(Nc2ccc(NC(=O)C3CCCCC3)cc2)n1` [Compound 33], in data set [1], the EC50 was found to be 930 nM.

As to “3‐Cyclohexyl‐N‐(6‐((4‐(dimethylamino)‐6‐methylpyrimidin‐2‐yl)amino)pyridin‐3‐yl)propenamide [Compound 25]”, the “fold reduction” value in data set [1] stood at 8 fold.

As to “3‐Cyclohexyl‐N‐(4‐((4‐methyl‐6‐morpholinopyrimidin‐2‐yl)amino)phenyl)propenamide [Compound 9]”, the “fold reduction” value in data set [1] came out at 4 fold. In the case of `COc1ccccc1NC(=O)Nc1ccc(Nc2nc(C)cc(N(C)C)n2)cc1` [Compound 48], the EC50 in data set [1] amounted to 380 nM. Same read-out and setting: to `Cc1cc(C)cc(C(=O)Nc2ccc(Nc3nc(C)cc(N(C)C)n3)cc2)c1` [Compound 41] belongs 590 nM; to `Cc1cc(N(C)C)nc(Nc2ccc(NC(=O)c3ccccc3Br)cc2)n1` [Compound 36], 1850 nM. Regarding `Cc1cccc(C(=O)Nc2ccc(Nc3nc(C)cc(N(C)C)n3)cc2)c1` [Compound 40], in data set [1], the 50% effective concentration (EC50) worked out at 1080 nM and the “fold reduction” value is reported as 2 fold. With `Cc1cc(N(C)C)nc(Nc2ccc(NC(=O)c3ccccc3C(F)(F)F)cc2)n1` [Compound 37], in data set [1], the EC50 came out at 850 nM and the “fold reduction” value was 2 fold. With `Cc1ccc(NC(=O)Nc2ccc(Nc3nc(C)cc(N(C)C)n3)cc2)cc1` [Compound 53], the EC50 in data set [1] turned out to be 440 nM. `Cc1cc(N(C)C)cc(Nc2ccc(NC(=O)CCC3CCCCC3)cc2)n1` [Compound 20, 3‐Cyclohexyl‐N‐(4‐((4‐(dimethylamino)‐6‐methylpyridin‐2‐yl)amino)phenyl)propanamide]: the EC50 in data set [1] came to 880 nM. In the case of `Cc1cc(Nc2ccc(NC(=O)CCC3CCCCC3)cc2)nc(N(C)C)c1` [Compound 19, 3‐Cyclohexyl‐N‐(4‐((6‐(dimethylamino)‐4‐methylpyridin‐2‐yl)amino)phenyl)propanamide], in data set [1], the EC50 is 610 nM. Same read-out and setting: the value for `Cc1cc(N(C)C)nc(Nc2ccc(NC(=O)Nc3cccc(Cl)c3)cc2)n1` [Compound 49] was 240 nM. The same measure, in the same setting: the value for `COc1ccc(NC(=O)Nc2ccc(Nc3nc(C)cc(N(C)C)n3)cc2)cc1` [Compound 54] was 400 nM. Take “3‐Cyclohexyl‐N‐(4‐((4‐(dimethylamino)quinazolin‐2‐yl)amino)phenyl)propenamide [Compound 16]”: in data set [3], the “Albumax binding % bound” value is 96.6%. For the same compound, in data set [4], the “Human liver microsomes CLint” value worked out at 166 µL/min/mg and the “Rat hepatocytes CLint” value was greater than 92 µL/min/10^6 cells. In data set [5] (setting [8]), the solubility is on record as 2.5 µM. Moreover, in data set [6], the eLogD is recorded as 4.6–5.0. With `Cc1cc(N(C)C)nc(Nc2ccc(NC(=O)Nc3ccccc3C)cc2)n1` [Compound 47], in data set [1], the EC50 worked out at 410 nM.

Take `Cc1cc(N(C)C)nc(Nc2ccc(NC(=O)c3cccs3)cc2)n1` [Compound 27]: the EC50 in data set [1] was determined as 1440 nM.

Usually EC50 stands for the midpoint of the concentration-response curve. The IC50 is the concentration that gives 50% inhibition. By hepatocyte CLint is commonly meant the rate of metabolic loss divided by the concentration. Lower therefore signals slow turnover. Usually solubility stands for how much of the substance goes into solution per volume. The term microsomal CLint denotes the capacity of the preparation to metabolise the compound, expressed as a volume cleared per time.
